Test results reported in article PMC9513234, “Synthesis and Biological Evaluation of Termini-Modified and Cyclic Variants of the Connexin43 Inhibitor Peptide5” (Frontiers in Chemistry, 2022).

How the values were obtained:
[1] = test system: gap junctions in hCMVEC cells; details: 100 µM, mean ± SEM
Description: We next investigated the ability of peptide5 variants to inhibit gap junctional communication using a scrape loading assay. In this assay, the cells in culture are loaded with a dye (Lucifer Yellow dilithium salt (LY), M.W. 457.25 Da) of molecular size (<1 kDa) that is able to transit through the gap junctions and the degree of dye spread is then measured by counting the number of cells that contain LY (Supplementary Material, Method 4) ^1. Consistent with our previous study, peptide5 (1) and Cbx reduced the degree of dye spread following incubation with LY (56.16 ± 2.1%; p < 0.0001 and 16.2 ± 1.1%; p < 0.0001, respectively) compared to the untreated controls (Figure 12).
Human cerebral microvascular endothelial cells (hCMVEC) were purchased from Applied Biological Materials (ABM) Inc, Canada (cat # T0259) (O'Carroll et al., 2015). Cells were cultured in 1 μg/cm^2 collagen I (Gibco) coated T75 flasks from Corning (NY, USA). The growth media was M199 media (Gibco), supplemented with 10% FBS, 1 μg/mL hydrocortisone (Sigma), 3 μg/mL human FGF (Peprotech), 10 μg/mL human EGF (Peprotech), 10 μg/mL heparin (Sigma), 2 mM Glutamax (Gibco), and 80 μM butyryl cAMP (Sigma).
For experiments hCMVECs cells were plated M199 media at a density of 4 x 10^5 cells per well in a collagen coated (1 µg/cm^2) 12-well plate the day prior to the experiment to ensure a confluent monolayer of hCMVECs. On the day of the experiment cells were pre-incubated in carbenoxolone, (100 µM) Peptide5 (5–100 µM) or modified analogues (100 µM) or M199 as a negative control. Cells were washed three times with phosphate buffered saline (PBS) without Ca^2+ or Mg^2+ and incubated in 0.05% Lucifer Yellow (LY) (Sigma), a fluorescent dye that is transferred through coupled gap junction channels (el-Fouly, Trosko, & Chang, 1987), and scrape-wounded with a size 10 carbon steel surgical blade (Swann-Morton, England). Following a 5 minute incubation at 37 °C in 95% O2 and 5% CO2 without light, the 0.05% LY solution was removed. Cells were rinsed four times with HBSS containing Ca^2+ ^+, and then fixed in 4% paraformaldehyde (PFA) in PBS at pH 7.4 for 10 minutes at room temperature. Cells were then washed 3 times in PBS to remove PFA before fluorescent imaging. Fluorescent images were visualized using a Nikon TE2000E inverted fluorescent microscope (10x magnification, 0.3 numerical aperture), and captured using a Digital Sight CCD camera and Eclipse Net software (Nikon). Three images within each well from three independent experiments were taken for analysis, and the total number of cells showing dye uptake from those that had been loaded were counted manually by masked observers. Each peptide was tested in at least an n of 2 separate experiments.

[2] = Human serum stability assay (RP-HPLC)
Description: We then evaluated the N-methylated variants 7 and 8, D amino acid variants 9 and 10, and the two carbo cyclic peptides 39 and 42. Each peptide was incubated with 25% aq. human serum at 37°C, and 6 aliquots were extracted within 48 h. The stability of each peptide upon exposure to human serum was then analyzed via analytical RP HPLC, and the amount of peptide still present at each time point was recorded relative to t = 0 h.
Whole blood was collected from a healthy volunteer and stored in a covered test tube and was allowed to clot by leaving it undisturbed at r.t. for ca. 1 h. The clot was removed by centrifugation at 1,000-2,000 x g for 10 min and the resulting supernatant was designated as the serum. The serum was collected and stored in 0.5 mL aliquots, whereby the samples were stored at - 20 °C.
200 µM concentration of peptide was incubated in 25% aq. human serum (1.7 mL) and left to shake at 37 °C. Aliquots of human serum-peptide mixture (270 µL) were taken at given times (0 h, 1 h, 4 h, 8 h, 24 h, and 48 h) and threefold excess of acetonitrile (810 µL) was added to the aliquot and left for 1 h at 0 °C. The samples underwent centrifugation (14,500 rpm) for 30 min at r.t. and the supernatant was subsequently collected. Upon evaporation of the solvents, the resulting dry, pale-yellow residue was dissolved in water containing 0.1 % TFA.
The dissolved solution was analysed via analytical RP HPLC and the quantity of the peptide was expressed as a percentage relative to the peptide peak area obtained at time zero (i.e. 100% peptide amount at t = 0 h). A scatterplot graph representing percentage of peptide versus time was generated.

gap junctions = details: in vitro, higher concentrations; ref O’Carroll et al., 2008; cited from earlier work
[3] = cited from earlier work
hemichannels = test system: hemichannels; design: method as in O’Carroll et al., 2008; details: in vitro; ref O’Carroll et al., 2008; cited from earlier work
[4] = design: method as in Kumagai et al., 1991; details: ref Kumagai et al., 1991; cited from earlier work

Substance | LY dye spread (number of LY-positive cells) as percentage of untreated control [1] [%] | time to complete degradation in human serum [2] [h] | concentration inhibiting both gap junctions and hemichannels (gap junctions) [µM] | half-life in rat serum [3] [min] | concentration selectively inhibiting hemichannels (hemichannels) [µM] | increase in binding compared to its linear form [4] [fold]
H-VDCFLSRPTEKT-OH [peptide5, H2N-VDCFLSRPTEKT-CO2H] | 56.16 ± 2.1 | ≤ 10 | 500 | 5 | ≥ 5 | 
cilengitide |  |  |  |  |  | 10
